# What was measured:
# Type in all cases: functional
# [1] = tested on: Xanthomonas campestris pv. oryzae; test: Antibacterial activity against Xanthomonas campestris pv. oryzae
# [2] = tested on: Pectobacterium carotovorum; test: Antibacterial activity against Pectobacterium carotovorum
# [3] = tested on: Ralstonia solanacearum; test: Antibacterial activity against Ralstonia solanacearum
# [4] = tested on: Agrobacterium tumefaciens; test: Antibacterial activity against Agrobacterium tumefaciens
# [5] = tested on: Clavibacter michiganensis; test: Antibacterial activity against Clavibacter michiganensis
# [6] = tested on: Bipolaris oryzae; test: Growth inhibition of Bipolaris oryzae at 10 ug/ml; details: read-out: GI
# [7] = tested on: Gaeumannomyces graminis; test: Growth inhibition of Gaeumannomyces graminis at 10 ug/ml; details: read-out: GI
# [8] = tested on: Pyricularia oryzae; test: Growth inhibition of Magnaporthe oryzae at 10 ug/ml; details: read-out: GI
# [9] = tested on: Rhizoctonia solani; test: Growth inhibition of Rhizoctonia solani at 10 ug/ml; details: read-out: GI
# [10] = tested on: Verticillium dahliae; test: Growth inhibition of Verticillium dahliae at 10 ug/ml; details: read-out: GI
# [11] = tested on: Globisporangium ultimum; test: Growth inhibition of Pythium ultimum at 10 ug/ml; details: read-out: GI
# [12] = tested on: Fusarium oxysporum; test: Growth inhibition of Fusarium oxysporum at 10 ug/ml; details: read-out: GI
# [13] = tested on: Phomopsis obscurans; test: Growth inhibition of Phomopsis obscurans at 30 uM after 48 hr by microtiter assay; details: Paraphomopsis obscurans, read-out: GI
# [14] = tested on: Plasmopara viticola; test: Growth inhibition of Plasmopara viticola at 30 uM after 48 hr by microtiter assay; details: read-out: GI
# [15] = tested on: Colletotrichum gloeosporioides; test: Growth inhibition of Colletotrichum gloeosporioides at 100 uM after 48 hr by microtiter assay; details: read-out: GI
# [16] = tested on: Colletotrichum fragariae; test: Growth inhibition of Colletotrichum fragariae at 300 uM after 48 hr by microtiter assay; details: read-out: GI
# [17] = tested on: Colletotrichum acutatum; test: Growth inhibition of Colletotrichum acutatum at 300 uM after 48 hr by microtiter assay; details: read-out: GI
# [18] = tested on: Fusarium oxysporum; test: Growth inhibition of Fusarium oxysporum at 300 uM after 48 hr by microtiter assay; details: read-out: GI
# [19] = tested on: Phomopsis obscurans; test: Growth inhibition of Phomopsis obscurans at 100 uM after 48 hr by microtiter assay; details: Paraphomopsis obscurans, read-out: GI
Structure (SMILES),MIC [1] [µg/mL],MIC [2] [µg/mL],MIC [3] [µg/mL],MIC [4] [µg/mL],MIC [5] [µg/mL],inhibition of growth at 10 µg/mL [6] [%],inhibition of growth at 10 µg/mL [7] [%],inhibition of growth at 10 µg/mL [8] [%],inhibition of growth at 10 µg/mL [9] [%],inhibition of growth at 10 µg/mL [10] [%],inhibition of growth at 10 µg/mL [11] [%],inhibition of growth at 10 µg/mL [12] [%],inhibition of growth at 300 µM [16] [%],inhibition of growth at 300 µM [17] [%],inhibition of growth at 300 µM [18] [%],further results
CCCCCC/C=C/Cc1[nH]c2ccccc2c(=O)c1C,> 20,> 20,> 20,> 20,10,68,54.7,49.9,58.1,74.9,0,41.1,–,–,–,–
Cn1c(CCCCCCc2ccc3c(c2)OCO3)cc(=O)c2ccccc21,–,–,–,–,–,–,–,–,–,–,–,–,57,57,–,inhibition of growth at 30 µM [13]: 100%; inhibition of growth at 30 µM [14]: 100%; inhibition of growth at 100 µM [15]: 67.7%
CCCCCCCCCc1cc(=O)c2ccccc2[nH]1,–,–,–,–,–,–,–,–,–,–,–,–,–,50,37,–
CCCC/C=C/Cc1[nH]c2ccccc2c(=O)c1C,50,> 50,> 50,> 50,10,63.9,17.1,70.8,50.9,82.8,37.7,34.4,–,–,–,–
CCCCNC(=O)n1c(NC(=O)OC)nc2ccccc21 [BENOMYL],–,–,–,–,–,–,–,–,–,–,–,–,76,33,77,inhibition of growth at 100 µM [19]: 100%
O=C1C2CC=CCC2C(=O)N1SC(Cl)(Cl)Cl (stereo unspecified) [CAPTAN],–,–,–,–,–,–,–,–,–,–,–,–,–,–,100,–
